For assay [1], the system named is total antioxidant capacity (TAC). The assay is described as follows: Adjuvant induced arthritis in rats: total antioxidant capacity (TAC) in serum. Type of assay: in vivo, Wistar rats. Conditions: serum of arthritic rats (n=8), once daily for 21 days, mean ± SEM. The procedure: (§1) Anti-inflammatory markers and antioxidant capacity were determined. Female Wistar rats with a body weight between 150 and 200 g were exposed to adjuvant induced arthritis according to Pearson et al. (1956). At day 0, the animals were administered 0.1 ml of Freund's Adjuvant (FCA) in the right hind paw, by subplantar injection. The animals were randomly divided into 12 groups of 8 animals each.
(§2) All extracts or solubilizates were administered orally once daily from day 0 through day 21 following the vaccination with the adjuvant. After day 21, the animals were killed and serum samples were prepared and stored at −80° C. Measurements were made of myeloperoxidase (MPO), C-reactive protein (CRP), total antioxidant capacity (TAC), and thiobarbituratic acid reactive substances (TBARS).
(§3) Oxidative stress is one of the major factors contributing to joint destruction in rheumatoid arthritis (RA). An increase in the production of reactive oxygen species (ROS) leads to a reduced supply of endogenous antioxidants and ultimately results in the destruction of cells. The neutrophil granulocytes released in the rheumatoid joint produce free oxygen radicals which cause increased formation of lipid peroxides manifesting in an increase in serum TBARS. […]

For assay [2], the system named is thiobarbituric acid reactive substances TBARS. The assay is described as follows: Adjuvant induced arthritis in rats: TBARS in serum. Format: in vivo, Wistar rats. Conditions: serum of arthritic rats (n=8), once daily for 21 days, mean ± SEM. The procedure:
as §1, §2, §3

The subject of assay [3] is WTD fed mice. The experiment in a line: Liver weight, hepatic triglyceride level and histology (steatosis) in WTD mice. Format: in vivo, mice of the strain C57BL/6. The conditions noted are these: 2.5 mg/kg daily, 8 weeks. The method, then: (§4) The medical faculty of Friedrich-Alexander University Erlangen Nürnberg (FAU) conducted studies on the effects of xanthohumol on body weight. A dose of 2.5 mg/kg body weight of xanthohumol was administered daily. For this purpose, a solubilizate of the present Applicant was used. It was prepared from 100 g “Xantho-Flav Pure”, 150 g of 96% ethanol, and 750 g of polysorbate 80. For adjusting the concentration to 0.375 mg/ml, the solubilizate was diluted with double-distilled water (“ddH2O”). The corresponding data are marked by “s-XN” in the accompanying figures.
(§5) For comparison, similar experiments were conducted with the same dose of native xanthohumol. For dissolving the native xanthohumol, an aqueous solution of methylhydroxypropyl cellulose (MHPC, 0.2%, Methocel E4M Premium CR, Hypromellose 2910 USP, Fragron Inc., Minnesota, USA) was used. The corresponding data are marked by “n-XN”. […]
To quantify liver lipids, the latter were extracted and the amount of triglycerides (“hepatic triglyceride level”) was determined using a “GPO-triglyceride kit” (Sigma, Deisenhofen, Germany), as described in Wobser et al.: “Lipid accumulation in hepatocytes induces fibrogenic activation of hepatic stellate cells”, Cell Res 2009; 19:996-1005. […]

Assay [4] concerns C-reactive protein (CRP). The experiment in a line: Adjuvant induced arthritis in rats: serum CRP. Type of assay: in vivo, Wistar rats. Conditions: arthritic rats, 5 mg/kg orally once daily day 0 through day 21; diclofenac 3 mg/kg as reference. The method, then:
as §1, §2

Assay [5] deals with type 1 collagen (COL1A1). The assay is described as follows: Hepatic expression of type 1 collagen in WTD mice. Format: in vivo, mice of the strain C57BL/6. Conditions: 2.5 mg/kg daily, 8 weeks. An excerpt:
(§6) Male mice of the strain C57BL/6 at an age of 8 weeks either received usual diet or were fed according to the “Western type diet” consisting of 15% pork lard, 15% beef tallow, 4% palmitic acid, 4% stearic acid, 0.2% cholesterol, and 30% sucrose. The control group (CTRL), which received the usual diet, was given an aqueous solution of methylhydroxypropyl cellulose (MHPC, 0.2%, Methocel™ E4M prem) (“vehicle” VH) as a therapy, as was the case with the “Western type diet” group (“WTD”).
(§7) Other groups received the xanthohumol solubilizate (“s-XN”) of the present Applicant or native xanthohumol (“n-XN”) in addition to the WTD. The therapy was conducted over 8 weeks.
(§8) RNA isolation from liver tissue, reverse transcription and quantitative real-time polymerase chain reaction (PCR) analysis were carried out using the “LightCycler” technology (Roche) and specific tests for primers, as described in Hellebrand et al.: “Promoter hypermethylation is causing functional relevant downregulation of methylthioadenosine phosphorylase (MTAP) expression in hepatocellular carcinoma”, Carcinogenesis 2006; 27:64-72.
Type 1 collagen (COL1A1) is the most important extracellular matrix protein in liver fibrosis, both quantitatively and qualitatively.

Assay [6] deals with alpha-smooth muscle actin (α-SMA). The assay is described as follows: Hepatic expression of alpha-smooth muscle actin in WTD mice (qPCR, immunohistochemistry). Format: in vivo, mice of the strain C57BL/6. The conditions noted are these: 2.5 mg/kg daily, 8 weeks.
Description: as §6, §7, §8
The α-SMA protein is an established marker of activated hepatic stellate cells (HSC) which trigger liver cirrhosis. An immunohistochemical analysis of the α-SMA protein confirmed that WTD causes significant activation of HSC (FIG. 4B).

For assay [7], the system named is myeloperoxidase (MPO). The experiment in a line: Adjuvant induced arthritis in rats: serum MPO. Type of assay: in vivo, Wistar rats. Conditions: arthritic rats, 5 mg/kg orally once daily day 0 through day 21; diclofenac 3 mg/kg as reference. The method, then: as §1, §2
The subject of assay [8] is WTD fed mice. The assay is described as follows: Intraperitoneal glucose tolerance test (ipGTT) in WTD mice. Format: in vivo, mice of the strain C57BL/6. The conditions noted are these: 2.5 mg/kg daily, after seven weeks. The method, then: as §4, §5
After seven weeks of administration of the solubilizate or of native xanthohumol, an intraperitoneal glucose tolerance test (ipGTT) was carried out. […] The concentration of glucose in the blood was measured in samples that were taken from the tail vein prior to glucose administration (fasting glucose) as well as 30, 60, 80, and 120 minutes thereafter. […]

The record followed here is US11786484B2, “Xanthohumol solubilizate” (Aquanova AG, priority 2018, dated 2023).

As to `O=C(O)Cc1ccccc1Nc1c(Cl)cccc1Cl` [Diclofenac, diclofenac], the TAC in assay [1] turned out to be 82.08 ± 2.96 nmol/µL. Moreover, in assay [2], the TBARS is 7.93 ± 0.84 nmol/L.
For the molecule `COc1cc(O)c(CC=C(C)C)c(O)c1C(=O)/C=C/c1ccc(O)cc1` [native xanthohumol, xanthohumol], the “steatosis (liver appearance, histological examinations)” value in assay [3] is on record as “accumulation of fat in the liver (steatosis)”. Further, the “effect on CRP serum level, in words” value in assay [4] is “effect comparable to that of diclofenac”. Further, in assay [5], the “WTD-induced expression of type 1 collagen” value is recorded as “hardly any effects”. In addition, the “WTD-induced expression of α-SMA” value in assay [6] is “hardly any effects”. Also, the “effect on the serum concentration of MPO, in words” value in assay [7] is “only a slight effect”. In addition, the TAC in assay [1] stood at 63.71 ± 1.02 nmol/µL. For the same molecule, in assay [2], the TBARS came out at 11.42 ± 1.16 nmol/L. In assay [8] (12 hours of fasting), the fasting glucose values entry is reported as “did not bring about this effect”. Besides, the glucose tolerance result in assay [8] (ipGTT 3 mg glucose per gram body weight) is reported as “did not bring about this effect”.
